In patent publication US10654866B2, “Selective estrogen receptor degraders” (Eli Lilly and Company, priority 2018, dated 2020):

Tests used:
[1] = system: T47D (Breast Cancer Xenograft); test: In vivo tumor growth inhibition, T47D xenograft; design: species or system mice; details: 28 days
Excerpt: The purpose of the following xenograft tumor inhibition assay is to measure reduction in tumor volume in response to test compound administration.

ERα = ERα (Homo sapiens (Human), UniProt P03372); test: PRα induction assay in MCF7 cells; assay type: cell-based; details: MCF7 breast cancer cells
Chain of ERα (P03372 whole entry): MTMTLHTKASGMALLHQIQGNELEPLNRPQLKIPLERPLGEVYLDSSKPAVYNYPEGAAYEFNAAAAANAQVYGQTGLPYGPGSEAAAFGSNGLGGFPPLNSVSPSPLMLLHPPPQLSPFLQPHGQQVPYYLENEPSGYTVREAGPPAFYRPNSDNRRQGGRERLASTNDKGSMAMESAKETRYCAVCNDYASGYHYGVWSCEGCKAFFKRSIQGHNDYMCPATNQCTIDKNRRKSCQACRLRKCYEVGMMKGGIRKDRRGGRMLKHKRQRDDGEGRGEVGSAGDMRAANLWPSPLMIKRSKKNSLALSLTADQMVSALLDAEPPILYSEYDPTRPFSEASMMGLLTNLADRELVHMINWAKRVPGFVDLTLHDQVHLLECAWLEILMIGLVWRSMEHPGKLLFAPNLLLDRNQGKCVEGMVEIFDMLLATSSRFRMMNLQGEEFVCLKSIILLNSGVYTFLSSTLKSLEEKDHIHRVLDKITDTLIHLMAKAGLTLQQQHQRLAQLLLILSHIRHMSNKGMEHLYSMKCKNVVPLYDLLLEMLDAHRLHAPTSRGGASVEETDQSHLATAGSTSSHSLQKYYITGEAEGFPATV
Protocol: The purpose of the following PRα induction assay is to determine whether a test compound has agonistic activity against ERα receptor (an agonist would be expected to activate the receptor).
Culture MCF7 (purchased from ATCC HTB-22) in DMEM media supplemented with 10% FBS, 0.01 mg/mL human insulin 1 and 1% penicillin/streptomycin antibiotics and plate the cells (prior to becoming 70% confluent) in 384-well flat-bottom plates at a density of 4,000 cells per well in 20 μL volume in DMEM phenol red free media containing 10% FBS (charcoal stripped). Incubate the cells overnight in a cell culture incubator (5% CO2, 95% relative humidity at 37° C.) and allow the cells to attach to the plate. The following day, dose the cells with test compound. Use an Echo 555 acoustic dispenser to prepare compound serial dilutions (1:3) in a range from 6 μM to 0.0003 μM. Dose the cells with the addition of the test compound (5 μL) from the serial dilution plate to the cell plate producing a final DMSO concentration of 0.2% with a final concentration of the test compound dose range between 2 and 0.0001 μM. For the maximum point use media containing 0.2% of DMSO and for the minimum point, use fulvestrant diluted at 2 μM final concentrations in the growth media containing 0.2% DMSO. After dosing with the test compound, incubate the cell plates at 37° C. and 5% CO2 for 24 hours. Fix the cells by adding 14% para-formaldehyde (10 μL) for 30 minutes at room temperature. Wash cells once with PBS (20 μL) and incubate with PBS (20 μL) containing 0.5% (v/v) TWEEN® 20 for 1 hour. Wash cells twice with PBS (20 μL) containing 0.05% TWEEN® 20 and block with 3% BSA in PBS containing 0.05% TWEEN® 20 and 0.1% TRITON™ X-100 (20 μL/well) for 1 hour at room temperature. […]
The following day, wash cells with PBS 0.05% TWEEN® 20 (2×20 μL) and incubate with secondary antibody (20 μL/well) (1:1000 dilution, Goat anti-rabbit IgM ALEXA FLUOR™ 488) in PBS 1% BSA for 105 minutes at room temperature. […] Scan plates with ACUMEN EXPLORER™ [Laser-scanning fluorescence microplate cytometer manufactured by TTP LABTECH LTD] to measure PRα. […]

How did the “Delta T/C % or Regression %” value ([1]; 3 mg/kg oral gavage QD) turn out when Oc1ccc2c3c(cnc2c1)-c1ccc(C(F)(F)F)cc1OC3c1ccc(OCCN2CC(CF)C2)cc1 (single isomer, unassigned) [Example 1B, 5-(4-{2-[3-(Fluoromethyl)azetidin-1-yl]ethoxy}phenyl)-8-(trifluoromethyl)-5H-[1]benzopyrano[4,3-c]quinolin-2-ol] was run?
Its value is 30%.

What about the “Delta T/C % or Regression %” value ([1]; 10 mg/kg oral gavage QD) of the same compound?
Its value is −11%.

And the “Delta T/C % or Regression %” value ([1]; 30 mg/kg oral gavage QD)?
Its value is −28%.

What about the agonistic activity (ERα) of the same compound?
Its agonistic activity is “no significant agonistic activity”.
